Consider one molecule from the NIST ThermoML archive (doi:10.1021/je900137r).

Numbers after ± are expanded uncertainties.

The conditions of series [1]: Crystal; Adiabatic calorimetry.
A short description of series [2]: Molar enthalpy of transition or fusion. The note with it: Crystal; Adiabatic calorimetry.

In the case of `CCC` [propane], the Triple point temperature in series [1] is reported as 85.53 ± 0.039 K. Besides, the “Molar enthalpy of transition or fusion” value in series [2] came to 0.838 ± 0.00956 kcal/mol.
